Where “and” joins values, the source holds several entries; their conditions need not be identical. Equal entries are not always repeated.

In the test the test system is 171881-019-R-J1-PDC tumor spheroids, viability. As to the kind of experiment: Anticancer human tumor 171881-019-R-J1-PDC patient-derived invasive breast carcinoma cell line growth inhibition [GQUAD]. The note with it: spheroids with HUVEC and MSC; for viability, T/C: stronger effect = lower value. The source says:
DNA G-quadruplex Stabilizer Agents in Combinations in Complex Spheroids
A high-throughput screen of multi-cell type tumor spheroids was designed to identify active combinations of DNA G-quadruplex stabilizer agents and targeted small molecules. Complex spheroids include a stromal component modeled by human endothelial cells (HUVEC) and fibroblasts modeled by human mesenchymal stem cells (MSCs). The concentration ranges selected for each drug and investigational agent were based upon clinically achievable concentrations if the clinical Cmax of the agent was known.
Compounds. The drugs and investigational agents: pidnarulex (CX-5461; NSC782164), APTO-253 (NSC789042), BRACO-19 (NSC847499), peposertib (NSC802822), ceralasertib (NSC780249), elimusertib (NSC800525), camonsertib (NSC841442), AZD-1390 (NSC803789), olaparib (NSC753686), talazoparib (NSC767125), ART-558 (NSC835418), sotorasib (NSC818433), MRTX-1133 (NSC836407), SN-38 (NSC673596), topotecan (NSC609699), etoposide (NSC141540), doxorubicin (NSC123127), gemcitabine (NSC613327), 5-fluorouracil (NSC19893), paclitaxel (NSC125973), vemurafenib (NSC761431), panobinostat (NSC761190), R-306465 (JNJ-16241199; NSC773264), adavosertib (NSC754352), TP-3654 (NSC805149), carboplatin (NSC241240), KSQ-4279 (NSC840948), and staurosporine (NSC755774) were obtained from the National Cancer Institute (NCI) Developmental Therapeutics Program Chemical Repository (34). The FDA-approved anticancer drug set is available from the NCI Developmental Therapeutics Program. […] The stock solutions were prepared in dimethyl sulfoxide (DMSO, Sigma-Aldrich, St. Louis, MO, cat. D2650) at 800-fold the tested concentration and stored at -70 degrees C prior to their use. All drugs and investigational agents were tested over a range starting from a high concentration at or near the clinical Cmax and decreasing in half-log increments. If the clinical Cmax for an agent had not been determined, the highest concentration tested was 10 microM.
2.3 Cell Culture. All cells were maintained in an incubator at 37 degrees C and 5% CO2 with 95% humidity. The PDC lines were cultured according to standard operating procedures established by the NCI PDMR. All PDCs were thawed and cultured in Matrigel-coated flasks prepared with a working solution of 1X Ham's F-12 nutrient mix, without supplementation (Invitrogen, cat. 11765054), 100 U/mL penicillin-streptomycin (Invitrogen, cat. 15140122), and 2.5% Matrigel (Corning Inc., cat. 354248) for the first three passages. The 857933-349-R-J2-PDC line was cultured in 6C/Colon 1B media, which includes advanced DMEM/F-12 (Thermo Fisher Scientific, cat. 12634028), 10 mM HEPES (Thermo Fisher Scientific, cat. 15630080), 1X GlutaMAX supplement (Thermo Fisher Scientific, cat. 35050061), 0.1 mg/mL primocin (InvivoGen, cat. ant-pm-2), 10% defined fetal bovine serum, heat inactivated (HyClone Laboratories Inc., cat. SH30070.03HI), 50% L-WRN conditioned media (ATCC, cat. CRL-3276), 1.25 mM N-Acetyl-L-cysteine (Sigma-Aldrich, cat. A9165), 10 mM nicotinamide (Sigma-Aldrich, cat. N0636), 1X B-27 supplement (Thermo Fisher Scientific, cat. 17504044), 1X N-2 supplement (Thermo Fisher Scientific, cat. 17502048), 10 microM Y-27632 dihydrochloride (Tocris Bioscience, cat. 1254), and 50 ng/mL human EGF recombinant protein (Thermo Fisher Scientific, cat. PHG0311). The 485176-168-R4-J1-PDC line was cultured in Panc media, which includes all 6C/Colon 1B media components plus 100 ng/mL human FGF-10 (Thermo Fisher Scientific, cat. 100-26), 500 nM SB-431542 (Selleckchem, cat. S1067), and gastrin (Tocris, cat. 3006).
[…]

Where [1] appears, read: compound alone, run of 02/20/2024.
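Also: spheroids exposed to compounds for 7 days.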
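For viability, T/C in this document: 100% = DMSO vehicle control viability.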

Regarding `COc1ccc([C@@H](O)c2cc(-c3ncnc4cc(N5CCOCC5)ccc34)c(F)cc2Cl)nn1`, the viability, T/C runs as follows: (compound 0.0316 µM) 82.4% and 94.3% and 101%; (compound 0.1 µM) 85.4% and 83% and 76.8%; (compound 0.316 µM) 72.4% and 72.6% and 69.2%; (compound 1 µM) 46.7% and 35.9% and 46.9%; (compound 3.16 µM) 13.4% and 7.19% and 13.3%; (compound 10 µM) 5.21% and 1.35% and 5.78%. Moreover, the IC50 (curve of compound) is 0.838 µM and 0.629 µM and 0.684 µM.

Take `COc1cccc2c1C(=O)c1c(O)c3c(c(O)c1C2=O)CC(O)(C(=O)CO)CC3OC1CC(N)C(O)C(C)O1` (stereo not drawn): the viability, T/C (compound 0.0316 µM) was 90.7% and 94.5% and 84.5%; the viability, T/C (compound 0.1 µM) is 52% and 64.5% and 52.4%; the viability, T/C (compound 0.316 µM) was 39.5% and 50.2% and 35.5%; the viability, T/C (compound 1 µM) was 13.5% and 20% and 15%; the viability, T/C (compound 3.16 µM) was 0.2% and 0.32% and 0.18%; the viability, T/C (compound 10 µM) is 0.4% and 0.19% and 0.39%. Besides, the IC50 (curve of compound) is 0.138 µM and 0.241 µM and 0.128 µM.

As to `Cc1[nH]c2ccc(F)cc2c1-c1nc2c3cccnc3c3ncccc3c2[nH]1`, the viability, T/C (compound 0.0316 µM) was 101% [middle of 12 runs]; the viability, T/C (compound 0.1 µM) was 103% [middle of 12 runs]; the viability, T/C (compound 10 µM) was 54.6% [middle of 12 runs]. For the same molecule, the IC50 is 2.63 µM [middle of 8 runs] under setting [1] and 1.65 µM [middle of 4 runs] (compound alone, run of 02/26/2024).

For the molecule `Cc1[nH]c2ccccc2c1CCNCc1ccc(/C=C/C(=O)NO)cc1`, the viability, T/C is 93.1% and 97% and 99.3% (compound 0.000999 µM); 90.7% and 88% and 95.2% (compound 0.00316 µM); 91.3% and 87.6% and 84.2% (compound 0.00999 µM); 83.3% and 83.6% and 75.6% (compound 0.0316 µM); 21.4% and 22.6% and 29% (compound 0.0999 µM); 0.4% and 0.47% and 1.04% (compound 0.316 µM). In addition, where the note is “curve of compound”, the IC50 was 0.0587 µM and 0.0595 µM and 0.0582 µM.

Consider `Cc1cccc(N(C)C(=O)C2C(O)CCN2c2nc(C)cc(C(F)(F)F)c2C#N)c1` (stereo not drawn), for which the viability, T/C is, setting by setting: (compound 0.0316 µM) 90.3% and 105% and 91.7%; (compound 0.1 µM) 101% and 88.7% and 99.2%; (compound 0.316 µM) 87.6% and 91.7% and 98.8%; (compound 1 µM) 104% and 95.4% and 100%; (compound 3.16 µM) 98.1% and 85.9% and 89.5%; (compound 10 µM) 84.6% and 77.5% and 71.8%. Besides, the IC50 (curve of compound) is more than 10 µM.

Turning to `Cc1cnc(CNC(=O)c2c(=O)c3ccc(N4CCCN(C)CC4)nc3n3c2sc2ccccc23)cn1`, the viability, T/C (compound 0.0316 µM) was 94.3% [middle of 12 runs]; the viability, T/C (compound 0.1 µM) is 85.4% [middle of 12 runs]; the viability, T/C (compound 0.316 µM) was 76% [middle of 12 runs]; the viability, T/C (compound 1 µM) was 70.7% [middle of 11 runs]; the viability, T/C (compound 3.16 µM) is 65% [middle of 12 runs]; the viability, T/C (compound 10 µM) is 62.7% [middle of 12 runs]. Besides, the IC50 under setting [1] is more than 10 µM.

Consider `Cn1ncnc1[C@H]1c2n[nH]c(=O)c3cc(F)cc(c23)N[C@@H]1c1ccc(F)cc1`, for which the viability, T/C was 108% and 102% and 105% (compound 0.000999 µM); 94.8% and 103% and 86.1% (compound 0.00316 µM); 95% and 95.7% and 88.2% (compound 0.00999 µM); 86.3% and 102% and 97.5% (compound 0.0316 µM); 88.8% and 91.6% and 81.5% (compound 0.0999 µM); 94.1% and 80.5% and 73.1% (compound 0.316 µM). Besides, the concentration for half-maximal inhibition (IC50) (curve of compound) is more than 0.316 µM.

As for `Nc1ccn(C2OC(CO)C(O)C2(F)F)c(=O)n1` (stereo not drawn), the viability, T/C runs as follows: (compound 0.0316 µM) 24% and 35.9% and 25.5%; (compound 0.1 µM) 30.8% and 38.8% and 28.2%; (compound 0.316 µM) 39.4% and 47.6% and 37.4%; (compound 1 µM) 37.8% and 48.4% and 37.6%; (compound 3.16 µM) 35.4% and 45.9% and 35.1%; (compound 10 µM) 31.4% (2×) and 44%. Besides, the IC50 (curve of compound) is less than 0.0316 µM.

As to `O=C(c1cc(Cc2n[nH]c(=O)c3ccccc23)ccc1F)N1CCN(C(=O)C2CC2)CC1`, the viability, T/C is, setting by setting: (compound 0.0316 µM) 96.1% and 101% and 87.5%; (compound 0.1 µM) 94.4% and 97.5% and 96.8%; (compound 0.316 µM) 94.5% and 105% and 103%; (compound 1 µM) 103% and 101% and 96.6%; (compound 3.16 µM) 100% and 97.8% and 95.5%; (compound 10 µM) 89.8% and 88.3% and 89.4%. Besides, the IC50 (curve of compound) was more than 10 µM.

On to `O=c1[nH]cc(F)c(=O)[nH]1`, for which the viability, T/C is, setting by setting: (compound 0.0316 µM) 82.5% and 74.1% and 82.2%; (compound 0.1 µM) 61.5% and 60.6% and 75.6%; (compound 0.316 µM) 61.1% and 61.8% and 73.7%; (compound 1 µM) 57.7% and 55.4% and 66.4%; (compound 3.16 µM) 51.6% and 51.2% and 63.5%; (compound 10 µM) 52.5% and 54.1% and 66.9%. Further, the IC50 (curve of compound) was more than 10 µM.
